Laboratory results: US20110262442A1, “COMPOSITIONS FOR TREATING CNS DISORDERS” (Adenios, Inc., priority 2009, published 2011)

Experiments:
brain endothelial cells = experiment: Actin stress fiber induction in brain endothelial cells; assay type: cell-based
Method: To test this brain endothelial cells were treated with either CCPA (to agonize A1 adenosine receptors) or […] (to agonize the A2A adenosine receptor).

blood brain barrier [1] = experiment: Fluorimetric analysis of labeled dextrans in brain after i.v. drug administration; assay type: in vivo, mice; settings: wild type mice, 10,000 Da FITC-dextran; for dextran entry into the CNS compared to NECA administration: 3 h after i.v. administration; for dextran entry into the CNS compared to vehicle treatment: 3 h after i.v. co-administration
Method: C57BL/6 mice from Jackson Laboratories were used as wild types. All mice used were aged 7-9 weeks and weighed between 20-25 g. All rats were aged 8 weeks and weighed 200-220 g. Mice and rats were bred and housed under specific pathogen-free conditions.
The adenosine receptor agonists NECA, CCPA and CGS 21860 were purchased from Tocris. Each was dissolved in DMSO then diluted in PBS to the desired concentration; in most cases final DMSO concentrations were <0.5% (vol/vol). For vehicle controls, DMSO was diluted in PBS to the same concentration. Dehydrated dextrans labeled with either FITC or Texas Red were purchased from Invitrogen and re-suspended in PBS to 10 mg ml^−1. All experiments involving dextran injection used 0.5 mg dextran in PBS. In experiments where drug and dextran were injected concomitantly, 0.5 mg of dextran was mixed with the drug to the desired concentration in a final volume of 200 μl. All injections were retro-orbital i.v. with a 27-gauge needle. In the SCH 58261 experiment, groups were administered vehicle or SCH 58261 for 4 d. Vehicle/drug and dextrans were injected on day 5 and tissues were collected 3 h after vehicle/drug administration. In Lexiscan experiments, Lexiscan was administered i.v. with 3 injections, 5 min apart and tissues were collected at 15 min unless otherwise indicated.
In dose-response experiments and experiments with the A1 AR and A2A AR knock-out mice, drugs and dextrans were injected concomitantly. After 3 h, the mice were anesthetized with ketamine/xylazine and subjected to a nose cone containing isoflurane. They were perfused with 25-50 ml ice-cold PBS through the left ventricle of the heart then decapitated. Their brains were removed, weighed and frozen for later analysis.
Ice-cold 50 mM Tris-Cl (pH 7.6) was added to frozen brains (100 μl per 100 mg brain) and were to thawed on ice. They were homogenized manually with ˜45 strokes of a dounce homogenizer in plastic 1.5 ml microfuge tubes then spun at 16.1 g in a microfuge for 30 min at room temperature (rt). The supernatants were transferred to new tubes and an equal volume absolute methanol was added. The samples were spun again at 16.1 g for 30 min at rt. Supernatant (200 μl) was transferred to a Corning costar 96 well black polystyrene assay plate (clear bottom). Additionally, a series of standards containing 0.001-10 μg ml^−1 dextran in 50% Tris-Cl/50% absolute methanol (vol/vol) was added to each plate. Absolute concentrations of dextrans were derived from these standard curves. Fluorimetric analysis was performed on a BioTek Synergy 4. FITC-dextran was detected at 488/519 (excitation/emission) and Texas Red-dextran was detected at 592/618.

hCMEC/D3 cells [2] = experiment: cAMP levels in human brain endothelial cells (cAMP Screen kit); assay type: cell-based; settings: 15 minutes treatment, various concentrations (CCPA: at high levels)
Method: Adenosine receptor activation regulates cAMP levels in cells. In order to determine the sensitivity of human brain endothelial cells to adenosine receptor induced cAMP regulation, human brain endothelial cells were cultured with adenosine receptor agonists at various concentrations, followed by cAMP level analysis, as shown in FIG. 13.
HCMECD3 cells were grown to confluencey on 24 well plates. As adenosine receptor (“AR”) stimulation is known to influence cAMP levels, cells were treated with or without various concentrations of NECA (general AR agonist), CCPA (A1 AR agonist), CGS 21860 (A2A AR agonist), DMSO vehicle, or Forksolin (induces cAMP). After 15 minutes, lysis buffer was added and the cells were frozen at −80 C to stop the reaction. Duplicate samples were used for each condition. cAMP levels were assayed using a cAMP Screen kit (Applied Biosystems, Foster City, Calif.).

hCMEC/D3 cells [3] = experiment: Jurkat cell migration across hCMEC/D3-seeded Transwell (in vitro BBB); assay type: cell-based, human; settings: hCMEC/D3 on Transwell, migrated cells counted after 24 hours
Source text: The blood brain barrier (“BBB”) is comprised of endothelial cells. During late stages of EAE, lymphocytes are known to cross the BBB. In order to determine if adenosine receptor stimulation of brain endothelial cells could promote lymphocyte migration through the BBB, an in vitro BBB was established. The human brain endothelial cell line hCMEC/D3 (Weksler et al., “Blood-brain Barrier-specific Properties of a Human Adult Brain Endothelial Cell Line,” […] (2005); Poller et al., “The Human Brain Endothelial Cell Line hCMEC/D3 as a Human Blood-brain Barrier Model for Drug Transport Studies,” J. Neurochem. 107(5):1358-1368 (2008), which are hereby incorporated by reference in their entirety) was obtained, which has been previously described as having BBB properties.
hCMEC/D3 cells were seeded onto Transwell and allowed to grow to confluencey. 2×10^6 Jurkat cells were added to the upper chamber with or without NECA (general adenosine receptor [AR] agonist), CCPA (A1 AR agonist), CGS 21860 (A2A AR agonist), or DMSO vehicle. After 24 hours, migrated cells in the lower chamber were counted. Values are relative to the number of cells that migrate through non-HCMECD3 seeded transwells.

Z310 cells = experiment: Jurkat cell migration across Z310-seeded Transwell (choroid plexus); assay type: cell-based, murine; settings: Z310 cells on Transwell, migrated cells counted after 24 hours, n=1
Method: The choroid plexus (“CP”) controls lymphocyte migration into the CNS. The CP expresses the A1 and A2A adenosine receptors. EAE is prevented in mice when A2A adenosine receptor activity is blocked. EAE is enhanced when the A1 adenosine receptor is missing. It was hypothesized that A2A adenosine receptor activation promotes lymphocyte migration across the CP. Z310 cells are a murine choroid plexus cell line. To test the hypothesis, Transwell membranes were seeded with Z310 cells and allowed to grow to confluencey. 2×10^6 Jurkat cells were added to the upper chamber with or with out NECA (n=1, general AR agonist), CCPA (n=1, AAR agonist), CGS 21860 (n=1, A2AAR agonist), or DMSO vehicle (n=1). After 24 hours, migrated cells in the lower chamber were counted. Values are relative to the number of cells that migrate through non-Z310 seeded transwells and the results are shown in FIG. 12.

[4] = test system: Experimental Autoimmune Encephalomyelitis (EAE); experiment: MOG-induced EAE induction and daily scoring; assay type: in vivo, mice
Source text: Cd73^−/− mice have been previously described (Thompson et al., “Crucial Role for Ecto-5′-Nucleotidase (CD73) in Vascular Leakage During Hypoxia,” J. Exp. Med. 200:1395-1405 (2004), which is hereby incorporated by reference in its entirety) and have been backcrossed to C57BL/6 for 14 generations. Cd73 mice have no overt susceptibility to infection and appear normal based on the size and cellular composition of their lymphoid organs and their T and B cell responses in in vivo and in vitro assays (Thompson et al., “Crucial Role for Ecto-5′-Nucleotidase (CD73) in Vascular Leakage During Hypoxia,” J. Exp. Med. 200:1395-1405 (2004), which is hereby incorporated by reference in its entirety). C57BL/6 and tcrα^−/− mice on the C57BL/6 background were purchased from The Jackson Laboratories. Mice were bred and housed under specific pathogen-free conditions at Cornell University or the University of Turku. For adenosine receptor blockade experiments, mice were given drinking water supplemented with 0.6 g/L of caffeine (Sigma) or 2 mg/kg SCH58261 (1 mg/kg s.c. and 1 mg/kg i.p.) in DMSO (45% vol. in PBS) or 45% DMSO alone starting 1 day before EAE induction and continuing throughout the experiment. All procedures performed on mice were approved by the relevant animal review committee.
EAE was induced by subjecting mice to the myelin oligodendrocyte glycoprotein (“MOG”) EAE-inducing regimen as described in Swanborg, “Experimental Autoimmune Encephalomyelitis in Rodents as a Model for Human Demyelinating Disease,” Clin. Immunol. Immunopathol. 77:4-13 (1995) and Bynoe et al., “Epicutaneous Immunization with Autoantigenic Peptides Induces T Suppressor Cells that Prevent Experimental Allergic Encephalomyelitis,” Immunity 19:317-328 (2003), which are hereby incorporated by reference in their entirety. Briefly, a 1:1 emulsion of MOG35-55 peptide (3 mg/ml in PBS) (Invitrogen) and complete Freund's adjuvant (CFA, Sigma) was injected subcutaneously (50 μl) into each flank. Pertussis toxin (PTX, 20 ng) (Biological Laboratories Inc.) was given intravenously (200 μl in PBS) at the time of immunization and again 2 days later. Mice were scored daily for EAE based on disease symptom severity; 0=no disease, 0.5-1=weak/limp tail, 2=limp tail and partial hind limb paralysis, 3=total hind limb paralysis, 4=both hind limb and fore limb paralysis, 5=death. Mice with a score of 4 were euthanized.

blood brain barrier [5] = experiment: FITC-Dextran extravasation through the brain endothelium (brain sections); assay type: in vivo, mice; settings: 10,000 MW FITC Dextran IP, 30 minutes
Method: In order to examine the effects of caffeine, a general adenosine receptor antagonist, on blood brain barrier permeability, mice were fed caffeine for several days and then injected with FITC Dextran, commonly used to assess endothelial permeability.
More particularly, mice were fed 0.6 g/l caffeine (Sigma, St. Louis, Mo.) in water or regular water ad lib for five days. Mice were injected IP with FITC Dextran (10,000 MW, Molecular Probes, Eugene, Oreg.) and after 30 minutes mice were perfused with ice cold PBS via the left ventricle. Brains were removed and snap frozen in OCT (Tissue Tek, Torrance, Calif.) and stored at −80° C. until sectioning. Tissue sections (5 μm) were stained with hematoxylin for light microscopy and with DAPI for a fluorescent counterstain.

| Molecule | actin stress fibers compared to vehicle alone (brain endothelial cells) | dextran entry into the CNS compared to NECA administration (blood brain barrier [1]) | dextran entry into the CNS compared to vehicle treatment (blood brain barrier [1]) | cAMP levels (hCMEC/D3 cells [2]) | lymphocyte (Jurkat) migration across the in vitro BBB (hCMEC/D3 cells [3]) | lymphocyte (Jurkat) migration across the CP (Z310 cells) | EAE development ([4]; cd73−/− mice, caffeine 0.6 g/L in drinking water) | EAE development ([4]; wild type mice, caffeine 0.6 g/L in drinking water from 1 day prior to and throughout EAE experiment) | FITC-Dextran extravasation across the blood brain barrier (blood brain barrier [5]; CD73−/− mice fed 0.6 g/l caffeine for five days, compared with wild type mice) | FITC-Dextran extravasation across the blood brain barrier (blood brain barrier [5]; wild type mice (caffeine feeding experiment), compared with CD73−/− mice) | development of EAE (mean EAE score) ([4]; wild-type mice, 15 units/kg body weight i.p. every 4 days, vs PBS vehicle) |
| --- | --- | --- | --- | --- | --- | --- | --- | --- | --- | --- | --- |
| OC[C@H]1O[C@@H](n2cnc3c(NC4CCCC4)nc(Cl)nc32)[C@H](O)[C@@H]1O [CCPA, 2-chloro-N^6-cyclopentyladenosine] | induction of actin stress fibers was observed | significantly lower than that observed after NECA administration | increased dextran entry into the CNS | increased cAMP levels | induced lymphocyte migration at high levels | induced lymphocyte migration at high levels |  |  |  |  |  |
| CCNC(=O)[C@H]1O[C@@H](n2cnc3c(N)nc(NCCc4ccc(CCC(=O)O)cc4)nc32)[C@H](O)[C@@H]1O [CGS 21680, 4-[2-[[6-Amino-9-(N-ethyl-b-D-ribofuranuronamidosyl)-9H-purin-2-yl]amino]ethyl]benzenepropanoic acid] |  | significantly lower than that observed after NECA administration | increased dextran entry into the CNS | slightly increased cAMP levels | promoted lymphocyte migration across the in vitro BBB when used at a lower concentration | promoted lymphocyte migration across the CP |  |  |  |  |  |
| Cn1c(=O)c2c(ncn2C)n(C)c1=O [caffeine] |  |  |  |  |  |  | did not develop EAE | dramatically protected against EAE development | less FITC-Dextran extravasation | more FITC-dextran extravasation |  |
| PEG-ADA: PEGylated adenosine deaminase (protein, UniProt P56658 2-363, looked up, PEGylated, PEGylated adenosine deaminase) Adenosine deaminase: AQTPAFNKPKVELHVHLDGAIKPETILYYGRKRGIALPADTPEELQNIIGMDKPLSLPEFLAKFDYYMPAIAGCREAVKRIAYEFVEMKAKDGVVYVEVRYSPHLLANSKVEPIPWNQAEGDLTPDEVVSLVNQGLQEGERDFGVKVRSILCCMRHQPSWSSEVVELCKKYREQTVVAIDLAGDETIEGSSLFPGHVKAYAEAVKSGVHRTVHAGEVGSANVVKEAVDTLKTERLGHGYHTLEDATLYNRLRQENMHFEVCPWSSYLTGAWKPDTEHPVVRFKNDQVNYSLNTDDPLIFKSTLDTDYQMTKNEMGFTEEEFKRLNINAAKSSFLPEDEKKELLDLLYKAYGMPSPASAEQCL |  |  |  |  |  |  |  |  |  |  | inhibits the development of EAE |
